Source: PubChem BioAssay (NCI)
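96-well plates; 48 h exposure; 5 concentrations. Endpoints by linear interpolation between flanking doses. Not reached: highest tested concentration assigned. Here, GI50 denotes the concentration required for 50% inhibition of growth. Definition used: TGI = concentration required for complete inhibition of growth.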

How the values were obtained:
Assay in all cases: DTP human tumour cell line panel, 48 h
ACHN renal = test system: ACHN renal
LOX IMVI melanoma = test system: LOX IMVI melanoma
NCI-H226 lung = test system: NCI-H226 lung
DU-145 prostate = test system: DU-145 prostate
T-47D breast = test system: T-47D breast
IGROV1 ovarian = test system: IGROV1 ovarian
EKVX NSCLC = test system: EKVX NSCLC
OVCAR-8 ovarian = test system: OVCAR-8 ovarian
U251 CNS = test system: U251 CNS
SR leukemia = test system: SR leukemia

SMILES: COc1cccc(N2C(=N)/C(=C3\Nc4ccccc4S3)CC2=O)c1
- GI50 (ACHN renal): 4.93 µM
- TGI (ACHN renal): > 100 µM
- GI50 (LOX IMVI melanoma): 3.21 µM
- TGI (LOX IMVI melanoma): > 100 µM
- GI50 (NCI-H226 lung): 38.3 µM
- TGI (NCI-H226 lung): > 100 µM
- GI50 (DU-145 prostate): 44.3 µM
- TGI (DU-145 prostate): > 100 µM
- GI50 (T-47D breast): 18.9 µM
- TGI (T-47D breast): > 100 µM
- GI50 (IGROV1 ovarian): 7.58 µM
- TGI (IGROV1 ovarian): > 100 µM
- GI50 (EKVX NSCLC): > 100 µM
- TGI (EKVX NSCLC): > 100 µM
- GI50 (OVCAR-8 ovarian): 7.9 µM
- TGI (OVCAR-8 ovarian): > 100 µM
- GI50 (U251 CNS): 3.89 µM
- TGI (U251 CNS): > 100 µM

SMILES: COc1ccc(C(=O)C(c2ccc(OC)cc2)C2(O)C(=O)Nc3c(Cl)cc(Cl)cc32)cc1 (stereo not given)
- TGI (ACHN renal): 61.2 µM
- TGI (LOX IMVI melanoma): 44 µM
- TGI (NCI-H226 lung): 36.5 µM
- TGI (EKVX NSCLC): 38.9 µM
- TGI (OVCAR-8 ovarian): 56.2 µM
- TGI (U251 CNS): > 100 µM

SMILES: Cc1c(C(=O)/C=C/c2ccc([N+](=O)[O-])cc2)[n+](=O)c2ccccc2n1[O-]
- TGI (ACHN renal): > 100 µM
- TGI (LOX IMVI melanoma): > 100 µM
- TGI (NCI-H226 lung): > 100 µM
- TGI (IGROV1 ovarian): > 100 µM
- TGI (EKVX NSCLC): > 100 µM
- TGI (OVCAR-8 ovarian): > 100 µM
- TGI (U251 CNS): > 100 µM
- TGI (SR leukemia): > 100 µM

SMILES: [CH3][Ge]([CH3])([CH2]CC#N)[S]c1ccccc1
- GI50 (ACHN renal): 18 µM
- TGI (ACHN renal): 33.1 µM
- GI50 (LOX IMVI melanoma): 4.36 µM
- TGI (LOX IMVI melanoma): 16.9 µM
- GI50 (NCI-H226 lung): 13.1 µM
- TGI (NCI-H226 lung): 33.4 µM
- GI50 (IGROV1 ovarian): 0.371 µM
- TGI (IGROV1 ovarian): 1.28 µM
- GI50 (EKVX NSCLC): 7.28 µM
- TGI (EKVX NSCLC): 66.2 µM
- GI50 (OVCAR-8 ovarian): 11.5 µM
- TGI (OVCAR-8 ovarian): 46.5 µM
- GI50 (U251 CNS): 9.85 µM
- TGI (U251 CNS): 22.6 µM

SMILES: C/C(=C\CNc1ncnc2c1ncn2C1CCCCO1)COP(=O)(O)O (stereo not given)
- TGI (ACHN renal): > 100 µM
- TGI (LOX IMVI melanoma): > 100 µM
- TGI (NCI-H226 lung): > 100 µM
- TGI (IGROV1 ovarian): > 100 µM
- TGI (EKVX NSCLC): > 100 µM
- TGI (OVCAR-8 ovarian): > 100 µM
- TGI (U251 CNS): > 100 µM
- TGI (SR leukemia): > 100 µM

SMILES: NNC(=O)N/N=C(/CC1(O)C(=O)Nc2ccc(Br)cc21)c1ccccc1 (stereo not given)
- TGI (ACHN renal): > 100 µM
- TGI (LOX IMVI melanoma): 35.1 µM
- TGI (NCI-H226 lung): > 100 µM
- TGI (IGROV1 ovarian): > 100 µM
- TGI (EKVX NSCLC): > 100 µM
- TGI (SR leukemia): 87.8 µM

SMILES: O=C1C=C(Nc2cc(Cl)ccc2Cl)c2ccccc2C1=O
- TGI (ACHN renal): > 100 µM
- TGI (NCI-H226 lung): 47.8 µM
- TGI (IGROV1 ovarian): > 100 µM
- TGI (EKVX NSCLC): > 100 µM
- TGI (OVCAR-8 ovarian): 56.9 µM
- TGI (U251 CNS): > 100 µM

SMILES: CCCCCCCCCCCCCCCC(=O)OCC1OC(OCCCC)[C@H](O[C@@H]2OC(C)C(OC(=O)CCC)C(O)C2O)C(O)C1O (stereo not given in full)
- GI50 (ACHN renal): 18.1 µM
- TGI (ACHN renal): 35.2 µM
- GI50 (LOX IMVI melanoma): 20 µM
- TGI (LOX IMVI melanoma): 44 µM
- GI50 (NCI-H226 lung): 16.8 µM
- TGI (NCI-H226 lung): 36.2 µM
- GI50 (DU-145 prostate): 19.7 µM
- TGI (DU-145 prostate): 35 µM
- GI50 (T-47D breast): 18.7 µM
- TGI (T-47D breast): 40 µM
- GI50 (IGROV1 ovarian): 23.1 µM
- TGI (IGROV1 ovarian): > 100 µM
- GI50 (EKVX NSCLC): 19.4 µM
- TGI (EKVX NSCLC): 36.5 µM
- GI50 (OVCAR-8 ovarian): 17 µM
- TGI (OVCAR-8 ovarian): 32.9 µM
- GI50 (U251 CNS): 18.8 µM
- TGI (U251 CNS): 38.8 µM

SMILES: Nc1nc2c(ncn2C2OC(CO)C(O)C2O)c(=O)o1 (stereo not given)
- TGI (ACHN renal): > 100 µM
- TGI (LOX IMVI melanoma): > 100 µM
- TGI (NCI-H226 lung): > 100 µM
- TGI (DU-145 prostate): > 100 µM
- TGI (IGROV1 ovarian): > 100 µM
- TGI (EKVX NSCLC): > 100 µM
- TGI (OVCAR-8 ovarian): > 100 µM
- TGI (U251 CNS): > 100 µM
- TGI (SR leukemia): > 100 µM

SMILES: O=C(Nc1ccc(Nc2ccc(NC(=O)c3ccccc3)c3c2C(=O)c2ccccc2C3=O)c2c1C(=O)c1ccccc1C2=O)c1ccccc1
- TGI (ACHN renal): > 100 µM
- TGI (NCI-H226 lung): > 100 µM
- TGI (IGROV1 ovarian): > 100 µM
- TGI (EKVX NSCLC): > 100 µM
- TGI (OVCAR-8 ovarian): > 100 µM
- TGI (U251 CNS): > 100 µM
- TGI (SR leukemia): > 100 µM

SMILES: Cc1cc2c3c(nc4ccccc42)C(=O)c2cccnc2-c3n1
- GI50 (ACHN renal): 0.0327 µM
- TGI (ACHN renal): 1.45 µM
- GI50 (LOX IMVI melanoma): 0.144 µM
- TGI (LOX IMVI melanoma): 0.524 µM
- GI50 (NCI-H226 lung): 0.942 µM
- TGI (NCI-H226 lung): 3.26 µM
- GI50 (DU-145 prostate): 0.3 µM
- TGI (DU-145 prostate): 1.48 µM
- GI50 (T-47D breast): 0.749 µM
- TGI (T-47D breast): 4.13 µM
- GI50 (IGROV1 ovarian): 0.0658 µM
- TGI (IGROV1 ovarian): 0.383 µM
- GI50 (EKVX NSCLC): 0.707 µM
- TGI (EKVX NSCLC): 2.49 µM
- GI50 (OVCAR-8 ovarian): 0.453 µM
- GI50 (U251 CNS): 0.413 µM
- TGI (U251 CNS): 6.93 µM

SMILES: Oc1ccc(I)c2cccnc12
- TGI (ACHN renal): > 100 µM
- TGI (LOX IMVI melanoma): 46.3 µM
- TGI (NCI-H226 lung): 41.8 µM
- TGI (IGROV1 ovarian): 39.3 µM
- TGI (EKVX NSCLC): 65.2 µM
- TGI (OVCAR-8 ovarian): > 100 µM
- TGI (U251 CNS): > 100 µM
- TGI (SR leukemia): 14.8 µM

SMILES: [pH]1p2[pH]p3p1p3[pH]2.c1cc[c]([Ge]([c]2ccccc2)[c]2ccccc2)cc1.c1cc[c]([Ge]([c]2ccccc2)[c]2ccccc2)cc1.c1cc[c]([Ge]([c]2ccccc2)[c]2ccccc2)cc1
- GI50 (ACHN renal): 16.9 µM
- TGI (ACHN renal): 36.2 µM
- GI50 (LOX IMVI melanoma): 14.4 µM
- TGI (LOX IMVI melanoma): 30.4 µM
- GI50 (NCI-H226 lung): 20.5 µM
- TGI (NCI-H226 lung): 37.2 µM
- GI50 (IGROV1 ovarian): 30 µM
- TGI (IGROV1 ovarian): 62.5 µM
- GI50 (EKVX NSCLC): 21.3 µM
- TGI (EKVX NSCLC): 46.3 µM
- GI50 (OVCAR-8 ovarian): 13.5 µM
- TGI (OVCAR-8 ovarian): 35.3 µM
- GI50 (U251 CNS): 7.54 µM
- TGI (U251 CNS): 19.7 µM
- GI50 (SR leukemia): 12.8 µM
- TGI (SR leukemia): 80.2 µM

SMILES: COC12OCCN(C)C1=CC(=O)C1N=NCC12 (stereo not given)
- TGI (LOX IMVI melanoma): > 100 µM
- TGI (NCI-H226 lung): > 100 µM
- TGI (IGROV1 ovarian): > 100 µM
- TGI (EKVX NSCLC): > 100 µM
- TGI (OVCAR-8 ovarian): > 100 µM
- TGI (U251 CNS): > 100 µM

SMILES: c1ccc(-c2sc(-c3ccccc3)c3c2C(c2ccccc2)c2c(-c4ccccc4)sc(-c4ccccc4)c2C3c2ccccc2)cc1 (stereo not given)
- TGI (ACHN renal): > 100 µM
- TGI (LOX IMVI melanoma): > 100 µM
- TGI (NCI-H226 lung): > 100 µM
- TGI (IGROV1 ovarian): > 100 µM
- TGI (EKVX NSCLC): > 100 µM
- TGI (OVCAR-8 ovarian): > 100 µM
- TGI (U251 CNS): > 100 µM
- TGI (SR leukemia): > 100 µM
